Laboratory results from patent US20130217659A1, “PROCESS FOR THE CRYSTALLISATION OF CEFADROXIL MONOHYDRATE” (DSM SINOCHEM PHARMACEUTICALS NETHERLANDS B.V., priority 2006, published 2013).

How the values were obtained:
Assay type in all cases: physicochemical
[1] = Colour stability test, stress conditions: storage at 40° C.; conditions: stored at 40° C.
Method: The CIE b value was determined using a X-Rite® 918 apparatus (X-Rite Incorporated, 4300 44th St. SE, Grand Rapids, Mich. 49512 USA). A sample of 2 g of cefadroxil crystals was placed at the appropriate place of the apparatus and the CIE b value was read. The average of two separate readings was calculated. Cefadroxil (CDX) monohydrate crystals obtained by the one-step crystallisation process of the Reference Experiment A and the two-step crystallisation process according to the present invention were stored at a temperature of 40° C. The CIE b values of the different cefadroxil monohydrate crystals were determined at different time intervals as indicated in Table 1. CDX (1)-(3) were obtained from 3 different crystallisation processes.

[2] = Determination of the CIE b value (colour of crystals) after crystallisation; conditions: crystals after isolation and drying, t=0; monohydrate
Method: CIE is an abbreviation for the French title of the International Commission on Illumination: “Commission International de l'Eclairage”. The CIE b is a measure to determine the colour of crystals, which is a known technology for the skilled man in the art. An overview of the fundamentals of the CIE colorimetry system is given in Ohno, Y., Paper for IS&T NIO16 Conference, Vancouver, Canada, Oct. 16-20, 2000, p. 1-5. The CIE b value was determined using a X-Rite® 918 apparatus (X-Rite Incorporated, 4300 44th St. SE, Grand Rapids, Mich. 49512 USA). A sample of 2 g of cefadroxil crystals was placed at the appropriate place of the apparatus and the CIE b value was read. The average of two separate readings was calculated.

[3] = Colour stability test, storage at 25° C.; conditions: stored at 25° C.
Method: The CIE b value was determined using a X-Rite® 918 apparatus (X-Rite Incorporated, 4300 44th St. SE, Grand Rapids, Mich. 49512 USA). A sample of 2 g of cefadroxil crystals was placed at the appropriate place of the apparatus and the CIE b value was read. The average of two separate readings was calculated. The cefadroxil monohydrate crystals obtained with the one-step crystallisation process of Reference experiment A and a two-step crystallisation process according to the present invention were stored at 25° C.

SMILES: CC1=C(C(=O)O)N2C(=O)[C@@H](NC(=O)[C@H](N)c3ccc(O)cc3)[C@H]2SC1 [CDX (3), cefadroxil monohydrate]
- CIE b ([1]; 0 weeks, monohydrate): 3.1
- CIE b ([1]; 2 weeks, monohydrate): 3.0
- CIE b ([1]; 4 weeks, monohydrate): 4.6

SMILES: CC1=C(C(=O)O)N2C(=O)[C@@H](NC(=O)[C@H](N)c3ccc(O)cc3)[C@H]2SC1 [CDX (1), cefadroxil monohydrate]
- CIE b ([1]; 0 weeks, monohydrate): 4.8
- CIE b ([1]; 4 weeks, monohydrate): 6.6
- CIE b ([1]; 8 weeks, monohydrate): 9.1
- CIE b ([1]; 12 weeks, monohydrate): 10.4
- CIE b ([1]; 20 weeks, monohydrate): 12.4
- CIE b ([1]; 24 weeks, monohydrate): 12.9

SMILES: CC1=C(C(=O)O)N2C(=O)[C@@H](NC(=O)[C@H](N)c3ccc(O)cc3)[C@H]2SC1 [CDX (2), cefadroxil monohydrate]
- CIE b ([1]; 0 weeks, monohydrate): 4.4
- CIE b ([1]; 2 weeks, monohydrate): 4.8
- CIE b ([1]; 4 weeks, monohydrate): 5.1

SMILES: CC1=C(C(=O)O)N2C(=O)[C@@H](NC(=O)[C@H](N)c3ccc(O)cc3)[C@H]2SC1 [Example 2, cefadroxil monohydrate]
- CIE b value [2]: 4.52

SMILES: CC1=C(C(=O)O)N2C(=O)[C@@H](NC(=O)[C@H](N)c3ccc(O)cc3)[C@H]2SC1 [Reference Experiment A, cefadroxil monohydrate]
- CIE b value [2]: 6.2
- CIE b ([1]; 0 weeks, listed as CDX monohydrate crystals obtained by the one-step crystallisation process, monohydrate): 6.2
- CIE b ([1]; 2 weeks, listed as CDX monohydrate crystals obtained by the one-step crystallisation process, monohydrate): 10.0
- CIE b ([1]; 4 weeks, listed as CDX monohydrate crystals obtained by the one-step crystallisation process, monohydrate): 13.2
- CIE b ([1]; 6 weeks): 15.6
- CIE b ([1]; 8 weeks, listed as CDX monohydrate crystals obtained by the one-step crystallisation process, monohydrate): 17.0
- CIE b ([1]; 12 weeks): 14.2
- CIE b ([1]; 14 weeks): 18.2
- CIE b ([1]; 18 weeks): 18.6
- CIE b ([1]; 20 weeks, listed as CDX monohydrate crystals obtained by the one-step crystallisation process, monohydrate): 19.1
- CIE b ([1]; 24 weeks, listed as CDX monohydrate crystals obtained by the one-step crystallisation process, monohydrate): 20.0
- CIE b ([3]; 0 months, listed as one-step crystallization process, monohydrate): 6.2
- CIE b ([3]; 3 months, listed as one-step crystallization process, monohydrate): 14.0
- CIE b ([3]; 6 months, listed as one-step crystallization process, monohydrate): 14.7
- CIE b ([3]; 9 months, listed as one-step crystallization process, monohydrate): 15.1
- CIE b ([3]; 12 months): 15.5
- CIE b ([3]; 18 months): 17.7

SMILES: CC1=C(C(=O)O)N2C(=O)[C@@H](NC(=O)[C@H](N)c3ccc(O)cc3)[C@H]2SC1 [two-step crystallization process, cefadroxil monohydrate]
- CIE b ([3]; 0 months, monohydrate): 4.8
- CIE b ([3]; 3 months, monohydrate): 5.8
- CIE b ([3]; 6 months, monohydrate): 6.0
- CIE b ([3]; 9 months, monohydrate): 6.3

SMILES: CC1=C(C(=O)O)N2C(=O)[C@@H](NC(=O)[C@H](N)c3ccc(O)cc3)[C@H]2SC1 [Example 1, cefadroxil monohydrate]
- CIE b value [2]: 4.68
